Source: patent US5998376A, “Substance P treatment for immunostimulation” (priority 1998, dated 1999)

Legend:
[1] = tested on: melanoma B16 cancer cells; assay: B16 melanoma tail vein injection, tumor colonies in both lungs; type: in vivo, mice; details: for mean number of tumor colonies observed in both lungs: 1×10^4 B16 cells/mouse, 4 weeks post-injection
Description: The mice were infected with syngeneic […] melanoma B16 cancer cells by tail vein injection. The dose was 1×10^4 B16 tumor cells/mouse. […] The second group of mice was given their substance P aerosol therapy starting one week after the injection of the B16 cells. The aerosol therapy lasted for one week. Both groups of mice and their corresponding controls (injection with B16 cells and no substance P therapy) were killed at 4 weeks post-injection with B16 cells. The data is presented as the mean number of tumor colonies observed in both lungs.

[2] = tested on: melanoma B16 cancer cells; assay: B16 melanoma massive challenge, survival; type: in vivo, mice; details: tumor-challenged mammals, aerosol therapy
Description: The mice were infected with 1×10^5 […] melanoma B16 cancer cells by tail vein injection.

[3] = tested on: immune system organs (spleen, lymph nodes and thymus); assay: Organ Weight and Total Cell Recovery, JP-8 exposed mice; type: in vivo, C57B16 mice; set-up: Spleen Weight / Thymus Weight: unit not given here
Description: At 24 hours after the last exposure, the animals were sacrificed and the effects of exposure on the immune system examined. Immune organs (spleen, thymus, blood, lymph nodes and bone marrow) were recovered and analyzed for effects on organ weight, total cell numbers, immune cell populations (by differentials), and lymphocyte subpopulations (by flow cytometry). Assays were also performed to examine the effects of exposure on immune function. […] Similar effects on immune cell subpopulations were also observed in lymph nodes. In the thymus it appeared that the immature CD4^+ CD8^+ cells were differentially lost due to exposure. […] However, these effects are prevented or ameliorated by treatment of the animals with Substance P.
Organ Weight and Total Cell Recovery: For each of the immune system organs (spleen, lymph nodes and thymus) the wet weight is determined after removal using a microbalance. After processing of the organs into single cell suspensions the cell numbers and viabilities are determined using trypan blue staining. Histochemical differentials are performed at this time. Cell numbers and viabilities are again determined after centrifugation of the cell suspensions through density gradients to obtain mononuclear cells.

[4] = tested on: spleen, thymus and bone marrow cells; assay: Substance P aerosol therapy in JP-8 jet fuel exposed mice, cell numbers (FIGS. 1-3); type: in vivo, C57BL6 mice
Description: Since mice are nose-breathers, they were exposed to the aerosol/vapor mixture via nose-only presentation while they were held in individual loading tubes. The tubes were nose-fitted to receiving adaptors that originated from the common anodized aluminum exposure chamber (volume 0.3 m^3, IN-TOX, Albuquerque, N.Mex.). Noses were positioned in the exposure ports to minimize systemic absorption that might occur during total body exposure or through the process of self-grooming after exposure. The mice were rotated on a daily basis through the 24-adaptor positions of the exposure chamber. This was done to minimize proximity to the jet fuel source as a variable in exposure concentration or composition. Passive entrainment of the jet fuel aerosol/vapor mix and room air through the IN-TOX chamber was conducted by vacuum (15 liters/min). The vacuum was applied to the exposure chamber on the side opposite the fuel source. Animal exposure ports not in use were sealed during the exposure period. Longitudinal controls were sham-exposed in a manner identical to those receiving jet fuel, except that only room air was introduced into the exposure chamber. The exposure chamber was thoroughly cleaned prior to the longitudinal control group's exposure.
The substance P aerosol therapy was performed at the completion of the JP-8 jet fuel exposure. The nebulizer was modified with clean hoses and a new sonication crucible. […] The substance P aerosol therapy was conducted for the same seven day period over a total time period of nine days as the JP-8 jet fuel exposure regimen.

[5] = tested on: splenic B cells; assay: Mitogenesis of spleen B cells (lipopolysaccharide, 3H-thymidine) from LP-BM5-infected mice given SP aerosol; type: in vivo, C57BL6 mice; details: LP-BM5 virus + SP aerosol 1 μM
Description: (§1) C57BL6 mice, average weight of 25-30 grams, were infected with the LP-BM5 murine leukemia retrovirus to simulate the human AIDS virus. […] The mice were divided into two groups; LP-BM5 virus only and LP-BM5 virus +substance P aerosol therapy at 1 μM concentration. The mice were killed at 4 and 8 weeks post-inoculation.
The proliferation of splenic B and T cells induced by mitogens was determined by incorporation of radioactive thymidine. Splenocytes in 0.1 ml of cell culture medium (1×10^7 cells/ml) were cultured in 96-well flat-bottom cultured plates with ConA and lipopolysaccharide, 5 micrograms/ml). The cells were incubated at 37° C., 5% CO2 incubator for 72 hours for ConA-induced T cell proliferation, and then pulsed with ^3 H-thymidine (1 microCurie/well). After 4 hours for radioactive thymidine uptake, the cells were harvested by a cell sample harvester. Radioactivity was determined by a liquid scintillation counter (Tri-Carb, 2200CA). The T and B cell mitogenesis values were recorded as counts per min in 1×10^7 cells/ml.

[6] = tested on: LP-BM5 murine leukemia retrovirus; assay: Mouse AIDS model, spleen changes and total cell numbers; type: in vivo, C57BL6 mice
Description: as §1

[7] = JP-8 dose 0 + SP or antagonist aerosol
[8] = JP-8 dose 1000 + SP or antagonist aerosol
[9] = JP-8 dose 1000 + nSP (1 nanomolar substance P)
[10] = dose printed 100 + nSP (1 nanomolar substance P)
[11] = JP-8 exposed mice, one micromolar aerosol 15 minutes
[12] = 4 weeks after infection, mean (SEM)

Substance: Substance P [SP]
- mean number of tumor colonies observed in both lungs ([1]; 1 μM SP aerosol 15 min/day 7 days starting immediately after injection): 39
- mean number of tumor colonies observed in both lungs ([1]; 1 μM SP aerosol for one week starting one week after injection): 1
- rate of tumor colonization ([1]; tumor-challenged mammals, aerosol therapy): reduce the rate of tumor colonization
- survival time [2]: enhance survival time
- BM Cell Number [3, 7]: 9
- Spleen Cell Number [3, 7]: 30
- Spleen Weight [3, 7]: 0.10
- Thymus Cell Number [3, 7]: 18
- Thymus Weight [3, 7]: 0.04
- BM Cell Number ([3]; JP-8 dose 250 + SP aerosol): 23
- Spleen Cell Number ([3]; JP-8 dose 250 + SP aerosol): 40
- Spleen Weight ([3]; JP-8 dose 250 + SP aerosol): 0.16
- Thymus Cell Number ([3]; JP-8 dose 250 + SP aerosol): 20
- Thymus Weight ([3]; JP-8 dose 250 + SP aerosol): 0.06
- BM Cell Number [3, 8]: 21
- LN Cell Number [3, 8]: 5.0
- Spleen Cell Number [3, 8]: 72
- Spleen Weight [3, 8]: 0.14
- Thymus Cell Number [3, 8]: 78
- Thymus Weight [3, 8]: 0.11
- BM Cell Number [3, 9]: 31
- Thymus Cell Number [3, 9]: 78
- Thymus Weight [3, 9]: 0.04
- BM Cell Number ([3]; JP-8 dose 2500 + SP aerosol): 19
- LN Cell Number ([3]; JP-8 dose 2500 + SP aerosol): 5.0
- Spleen Cell Number ([3]; JP-8 dose 2500 + SP aerosol): 87
- Spleen Weight ([3]; JP-8 dose 2500 + SP aerosol): 0.10
- Thymus Cell Number ([3]; JP-8 dose 2500 + SP aerosol): 96
- Thymus Weight ([3]; JP-8 dose 2500 + SP aerosol): 0.08
- Spleen Cell Number [3, 10]: 58
- Spleen Weight [3, 10]: 0.11
- effect on spleen cell number (FIG. 1) ([4]; JP-8 500 or 2500 mg/m^3, 1 hour/day 7 days, one micromolar aerosol 15 minutes after each exposure): totally reverse the effect of the jet fuel on the spleen cell number
- effect on bone marrow cells (FIG. 3) [4, 11]: augments the stimulation substantially
- effect on thymus cell number (FIG. 2) [4, 11]: substantially reverses the effect on cell number
- Spleen B Cell Mitogenesis, 24 Hours in Culture [5, 12]: 2063 (448) counts per min
- Spleen B Cell Mitogenesis, 48 Hours in Culture [5, 12]: 1369 (231) counts per min
- Spleen B Cell Mitogenesis, 72 hours in culture [5, 12]: 1642 (158) counts per min
- Spleen B Cell Mitogenesis, 72 hours in culture ([5]; 8 weeks post-infection, not significant): 3227 (854) counts per min
- changes in the mouse spleens ([6]; LP-BM5 mouse model, SP aerosol therapy): caused significant changes in the mouse spleens
- total cell numbers (spleen) versus LP-BM5 group ([6]; SP+Virus Group, 4 weeks after infection): not accompanied by an increase in total cell numbers
